Laboratory results as given in the supplement of paper PMC10883282.

Columns and labels:
Experiment in all cases: relative viability vs DMSO control (72 h) (fraction); higher = more viable cells
G401 = test system: G401
Method in brief: (§1)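 After seeding at densities set for 80–90% confluence in 384-well plates, sarcoma cell lines waited 24 h before 2.5 µl of serially diluted compound was added. Source plates held 10 mM down to 0.0002 mM. Plates were incubated 72 h at 37 °C with 5% CO2, with 0.1% DMSO vehicle and a 5 µM positive control, and relative viability was taken from ATPLite as percent growth averaged over up to triplicate wells, with 1 set as full and 0 as none.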

SK-LMS-1 = test system: SK-LMS-1
Method in brief: as §1

MES-SA = test system: MES-SA
Method in brief: as §1

SW872 = test system: SW872
Method in brief: as §1

SYO-1 = test system: SYO-1
Method in brief: as §1

A204 = test system: A204
Method in brief: as §1

SK-ES-1 = test system: SK-ES-1
Method in brief: as §1

VA-ES-BJ = test system: VA-ES-BJ
Method in brief: as §1

SW684 = test system: SW684
Method in brief: as §1

KHOS-NP = test system: KHOS-NP
Method in brief: as §1

RD = test system: RD
Method in brief: as §1

HS729 = test system: HS729
Method in brief: as §1

CC1(C)CC=C(c2nc(C3CC(C)(C)OC(C)(C)C3)ccc2NC(=O)c2nc(C#N)c[nH]2)CC1 [Edicotinib]
Conditions	relative viability
A204, 0.00017 µM	1.08
A204, 0.00051 µM	1.06
A204, 0.00152 µM	1.06
A204, 0.00457 µM	1.05
A204, 0.01372 µM	1.08
A204, 0.04115 µM	1.06
A204, 0.1235 µM	1.03
A204, 0.3704 µM	1.05
A204, 1.111 µM	1.04
A204, 3.333 µM	1.07
A204, 10 µM	1.08
G401, 0.00017 µM	1.02
G401, 0.00051 µM	0.99
G401, 0.00152 µM	1
G401, 0.00457 µM	1.01
G401, 0.01372 µM	1.04
G401, 0.04115 µM	0.9919
G401, 0.1235 µM	1.02
G401, 0.3704 µM	1
G401, 1.111 µM	0.952
G401, 3.333 µM	0.989
G401, 10 µM	0.929
HS729, 0.00017 µM	1
HS729, 0.00051 µM	0.931
HS729, 0.00152 µM	0.953
HS729, 0.00457 µM	0.909
HS729, 0.01372 µM	0.89
HS729, 0.04115 µM	0.902
HS729, 0.1235 µM	0.924
HS729, 0.3704 µM	0.9
HS729, 1.111 µM	0.894
HS729, 3.333 µM	0.933
HS729, 10 µM	0.999
KHOS-NP, 0.00017 µM	1.03
KHOS-NP, 0.00051 µM	1.03
KHOS-NP, 0.00152 µM	1.04
KHOS-NP, 0.00457 µM	1.04
KHOS-NP, 0.01372 µM	1.03
KHOS-NP, 0.04115 µM	1.04
KHOS-NP, 0.1235 µM	1.05
KHOS-NP, 0.3704 µM	1.04
KHOS-NP, 1.111 µM	1.05
KHOS-NP, 3.333 µM	0.996
KHOS-NP, 10 µM	0.974
MES-SA, 0.00017 µM	0.945
MES-SA, 0.00051 µM	0.962
MES-SA, 0.00152 µM	0.935
MES-SA, 0.00457 µM	0.939
MES-SA, 0.01372 µM	0.9423
MES-SA, 0.04115 µM	0.93
MES-SA, 0.1235 µM	0.909
MES-SA, 0.3704 µM	0.92
MES-SA, 1.111 µM	0.868
MES-SA, 3.333 µM	0.879
MES-SA, 10 µM	0.887
RD, 0.00017 µM	1.123
RD, 0.00051 µM	1.09
RD, 0.00152 µM	1.12
RD, 0.00457 µM	1.07
RD, 0.01372 µM	1.07
RD, 0.04115 µM	1.12
RD, 0.1235 µM	1.1
RD, 0.3704 µM	1.1
RD, 1.111 µM	1.07
RD, 3.333 µM	1.05
RD, 10 µM	1.06
SK-ES-1, 0.00017 µM	1.04
SK-ES-1, 0.00051 µM	1.06
SK-ES-1, 0.00152 µM	1.04
SK-ES-1, 0.00457 µM	1.01
SK-ES-1, 0.01372 µM	1.04
SK-ES-1, 0.04115 µM	1.06
SK-ES-1, 0.1235 µM	1.04
SK-ES-1, 0.3704 µM	1
SK-ES-1, 1.111 µM	0.986
SK-ES-1, 3.333 µM	0.958
SK-ES-1, 10 µM	0.969
SK-LMS-1, 0.00017 µM	1.01
SK-LMS-1, 0.00051 µM	1.02
SK-LMS-1, 0.00152 µM	1.04
SK-LMS-1, 0.00457 µM	1.04
SK-LMS-1, 0.01372 µM	1.07
SK-LMS-1, 0.04115 µM	1.05
SK-LMS-1, 0.1235 µM	0.995
SK-LMS-1, 0.3704 µM	0.997
SK-LMS-1, 1.111 µM	0.929
SK-LMS-1, 3.333 µM	1.04
SK-LMS-1, 10 µM	1.013
SW684, 0.00017 µM	1.13
SW684, 0.00051 µM	1.14
SW684, 0.00152 µM	1.16
SW684, 0.00457 µM	1.15
SW684, 0.01372 µM	1.13
SW684, 0.04115 µM	1.1
SW684, 0.1235 µM	1.11
SW684, 0.3704 µM	1.17
SW684, 1.111 µM	1.24
SW684, 3.333 µM	1.14
SW684, 10 µM	1.16
SW872, 0.00017 µM	1.01
SW872, 0.00051 µM	0.994
SW872, 0.00152 µM	0.992
SW872, 0.00457 µM	1
SW872, 0.01372 µM	1.01
SW872, 0.04115 µM	0.997
SW872, 0.1235 µM	1.01
SW872, 0.3704 µM	1.04
SW872, 1.111 µM	1.06
SW872, 3.333 µM	1.07
SW872, 10 µM	1.08
SYO-1, 0.00017 µM	0.931
SYO-1, 0.00051 µM	0.925
SYO-1, 0.00152 µM	0.919
SYO-1, 0.00457 µM	0.96
SYO-1, 0.01372 µM	0.963
SYO-1, 0.04115 µM	0.94
SYO-1, 0.1235 µM	0.961
SYO-1, 0.3704 µM	1.01
SYO-1, 1.111 µM	1.03
SYO-1, 3.333 µM	0.981
SYO-1, 10 µM	1.04
VA-ES-BJ, 0.00017 µM	1.04
VA-ES-BJ, 0.00051 µM	1.05
VA-ES-BJ, 0.00152 µM	1.04
VA-ES-BJ, 0.00457 µM	1.06
VA-ES-BJ, 0.01372 µM	1.03
VA-ES-BJ, 0.04115 µM	0.98
VA-ES-BJ, 0.1235 µM	0.977
VA-ES-BJ, 0.3704 µM	1.03
VA-ES-BJ, 1.111 µM	1.04
VA-ES-BJ, 3.333 µM	1.05
VA-ES-BJ, 10 µM	1.04
